Experimental data: the NIST ThermoML archive (doi:10.1021/acs.jced.9b00248)

Assay: mn = molality of the nth substance listed, in mol/kg
Conditions: Liquid; for viscosity: Vibrating wire viscometry; for mass density: Vibrating tube method

[Ca+2].[Cl-].[Cl-] [calcium chloride] + O
Conditions	mass density [kg/m3]	viscosity [mPa·s]
274.75 K, 1300 kPa, m1 = 1	–	2.142
274.75 K, 49900 kPa, m1 = 1	–	2.117
274.75 K, 99700 kPa, m1 = 1	–	2.096
274.87 K, 1270 kPa, m1 = 1	1088.12	–
274.87 K, 15180 kPa, m1 = 1	1094.18	–
274.87 K, 30070 kPa, m1 = 1	1100.27	–
274.87 K, 49880 kPa, m1 = 1	1108.27	–
274.87 K, 69750 kPa, m1 = 1	1115.89	–
274.87 K, 99730 kPa, m1 = 1	1126.88	–
274.98 K, 1310 kPa, m1 = 2.5	1201.94	–
274.98 K, 15210 kPa, m1 = 2.5	1207.74	–
274.98 K, 30100 kPa, m1 = 2.5	1212.77	–
274.98 K, 49930 kPa, m1 = 2.5	1219.37	–
274.98 K, 69770 kPa, m1 = 2.5	1225.9	–
274.98 K, 99750 kPa, m1 = 2.5	1235.53	–
296.18 K, 1280 kPa, m1 = 1	1082.39	–
296.18 K, 15170 kPa, m1 = 1	1087.93	–
296.18 K, 30070 kPa, m1 = 1	1093.68	–
296.18 K, 49900 kPa, m1 = 1	1101.19	–
296.18 K, 69750 kPa, m1 = 1	1108.4	–
296.18 K, 99730 kPa, m1 = 1	1118.84	–
296.21 K, 30100 kPa, m1 = 1	–	1.224
296.21 K, 99700 kPa, m1 = 1	–	1.237
296.22 K, 1310 kPa, m1 = 2.5	1192.77	–
296.22 K, 15240 kPa, m1 = 2.5	1197.73	–
296.22 K, 30130 kPa, m1 = 2.5	1202.82	–
296.22 K, 49960 kPa, m1 = 2.5	1209.46	–
296.22 K, 69780 kPa, m1 = 2.5	1215.91	–
296.22 K, 99740 kPa, m1 = 2.5	1225.32	–
323.23 K, 1280 kPa, m1 = 2.5	1179.3	–
323.23 K, 15180 kPa, m1 = 2.5	1184.63	–
323.23 K, 30060 kPa, m1 = 2.5	1189.89	–
323.23 K, 49910 kPa, m1 = 2.5	1196.52	–
323.23 K, 69770 kPa, m1 = 2.5	1202.94	–
323.23 K, 99730 kPa, m1 = 2.5	1212.15	–
323.31 K, 1240 kPa, m1 = 1	1071.6	–
323.31 K, 15190 kPa, m1 = 1	1077.19	–
323.31 K, 30070 kPa, m1 = 1	1082.81	–
323.31 K, 49880 kPa, m1 = 1	1090.06	–
323.31 K, 69760 kPa, m1 = 1	1097.04	–
323.31 K, 99750 kPa, m1 = 1	1107.2	–
323.4 K, 1300 kPa, m1 = 1	–	0.736
323.4 K, 15200 kPa, m1 = 1	–	0.734
323.4 K, 30100 kPa, m1 = 1	–	0.732
323.4 K, 49900 kPa, m1 = 1	–	0.728
323.4 K, 69800 kPa, m1 = 1	–	0.725
348.19 K, 1320 kPa, m1 = 2.5	1165.84	–
348.19 K, 15220 kPa, m1 = 2.5	1170.56	–
348.19 K, 30110 kPa, m1 = 2.5	1175.97	–
348.19 K, 49950 kPa, m1 = 2.5	1182.84	–
348.19 K, 69790 kPa, m1 = 2.5	1189.55	–
348.19 K, 99790 kPa, m1 = 2.5	1199.01	–
348.2 K, 1300 kPa, m1 = 1	1058.82	–
348.2 K, 15220 kPa, m1 = 1	1064.57	–
348.2 K, 30100 kPa, m1 = 1	1070.33	–
348.2 K, 49930 kPa, m1 = 1	1077.65	–
348.2 K, 69790 kPa, m1 = 1	1084.72	–
348.2 K, 99770 kPa, m1 = 1	1094.89	–
373.2 K, 1350 kPa, m1 = 2.5	1151.73	–
373.2 K, 15250 kPa, m1 = 2.5	1156.76	–
373.2 K, 30140 kPa, m1 = 2.5	1161.97	–
373.2 K, 49960 kPa, m1 = 2.5	1168.74	–
373.2 K, 69820 kPa, m1 = 2.5	1175.25	–
373.2 K, 99780 kPa, m1 = 2.5	1184.69	–
373.22 K, 1320 kPa, m1 = 1	1042.78	–
373.22 K, 15230 kPa, m1 = 1	1048.82	–
373.22 K, 30130 kPa, m1 = 1	1054.88	–
373.22 K, 49940 kPa, m1 = 1	1062.61	–
373.22 K, 69790 kPa, m1 = 1	1070	–
373.22 K, 99790 kPa, m1 = 1	1080.38	–
373.45 K, 30100 kPa, m1 = 1	–	0.393
373.45 K, 49900 kPa, m1 = 1	–	0.399
398.26 K, 1360 kPa, m1 = 2.5	1134.93	–
398.26 K, 15270 kPa, m1 = 2.5	1140.45	–
398.26 K, 30160 kPa, m1 = 2.5	1146.01	–
398.26 K, 49970 kPa, m1 = 2.5	1153.12	–
398.26 K, 69820 kPa, m1 = 2.5	1159.89	–
398.26 K, 99800 kPa, m1 = 2.5	1169.63	–
398.28 K, 1320 kPa, m1 = 1	1024.8	–
398.28 K, 15230 kPa, m1 = 1	1031.2	–
398.28 K, 30120 kPa, m1 = 1	1037.76	–
398.28 K, 49940 kPa, m1 = 1	1045.99	–
398.28 K, 69780 kPa, m1 = 1	1053.7	–
398.28 K, 99790 kPa, m1 = 1	1064.71	–
398.33 K, 15200 kPa, m1 = 1	–	0.31
398.33 K, 30100 kPa, m1 = 1	–	0.315
398.33 K, 49900 kPa, m1 = 1	–	0.321
423.46 K, 1400 kPa, m1 = 1	–	0.255
423.46 K, 50000 kPa, m1 = 1	–	0.266
423.46 K, 69800 kPa, m1 = 1	–	0.272
423.6 K, 1340 kPa, m1 = 1	1004.42	–
423.6 K, 1360 kPa, m1 = 2.5	1116.33	–
423.6 K, 15250 kPa, m1 = 1	1011.3	–
423.6 K, 15260 kPa, m1 = 2.5	1122.22	–
423.6 K, 30150 kPa, m1 = 1	1018.56	–
423.6 K, 30150 kPa, m1 = 2.5	1128.37	–
423.6 K, 49950 kPa, m1 = 1	1027.46	–
423.6 K, 49980 kPa, m1 = 2.5	1136	–
423.6 K, 69810 kPa, m1 = 2.5	1143.19	–
423.6 K, 69820 kPa, m1 = 1	1035.71	–
423.6 K, 99790 kPa, m1 = 2.5	1153.51	–
423.6 K, 99810 kPa, m1 = 1	1047.43	–
448.43 K, 1400 kPa, m1 = 1	–	0.226
448.43 K, 69800 kPa, m1 = 1	–	0.235
448.83 K, 1360 kPa, m1 = 2.5	1096.34	–
448.83 K, 15250 kPa, m1 = 2.5	1102.89	–
448.83 K, 30150 kPa, m1 = 2.5	1109.65	–
448.83 K, 49970 kPa, m1 = 2.5	1117.84	–
448.83 K, 69820 kPa, m1 = 2.5	1125.62	–
448.83 K, 99830 kPa, m1 = 2.5	1136.51	–
448.84 K, 1360 kPa, m1 = 1	982.19	–
448.84 K, 15270 kPa, m1 = 1	989.78	–
448.84 K, 30160 kPa, m1 = 1	997.78	–
448.84 K, 49980 kPa, m1 = 1	1007.39	–
448.84 K, 69830 kPa, m1 = 1	1016.54	–
448.84 K, 99810 kPa, m1 = 1	1029.19	–
